Holding throughout (format): physicochemical
Series [1] is described as follows: Solid-state stability test (high temperature, high humidity, light exposure, acceleration); purity by HPLC, crystal form by XRPD. Particulars: for change in the purity and form: 15 days under 60°C, 92.5% RH, 4500lux and 40°C/75% RH, respectively. As for the experimental part: Put an appropriate amount of the test sample (the compound shown by Formula (I) in the form of Crystal Form A) on a watch glass, spread it into a thin layer ≤ 5mm thick, and place it under a high temperature of 60°C, a high humidity of 92.5% RH, a light exposure of 4500lux and an acceleration condition of 40°C/75% RH for 15 days, respectively. Sample on the 7th and 15th day to observe the color change of the samples. Analyze the sample purity and crystal form through HPLC and XPRD detection, respectively. Table 5. Test results of Crystal Form A and amorphous stability
Put an appropriate amount of the test sample (the compound shown by Formula (II) in the form of Crystal Form B) on a watch glass, spread it into a thin layer ≤ 5mm thick, and place it under a high temperature of 60°C, a high humidity of 92.5% RH, a light exposure of 4500lux and an acceleration condition of 40°C/75% RH for 15 days, respectively. Sample on the 15th day to observe the color change of the sample. Analyze the sample purity and crystal form through HPLC and XPRD detection, respectively. Table 8. Test results of Crystal Form B stability

A short description of series [2]: Solubility test in biological media (FaSSIF, FeSSIF), HPLC detection. The settings on record: for solubility (result in words): in FeSSIF and FaSSIF; for solubility at 0.5 h / solubility at 2 h / solubility at 24 h: 37°C. As for the experimental part:
Add 20mg of the sample (the compound shown by Formula (I) in the form of Crystal Form A) into a 10ml conical tube, and then add 4ml of water or biological medium (FeSSIF (pH 5.0) or FaSSIF (pH 6.5)), respectively. Shake the solution at 37°C for 24h in a constant temperature bath at 1000rpm, and take samples at 0.5h, 2h and 24h, respectively. Filter the samples through an aquo-system microporous filter membrane and discard the initial filtrate to obtain the test solution.
Perform an HPLC detection for the test solution (20µL), and calculate the sample concentration according to the standard curve method. Table 3. Solubility test results of Crystal Form A in different media
Add 20mg of the sample (the compound shown by Formula (II) in the form of Crystal Form B) into a 10ml conical tube, and then add 4ml of water or biological medium (FeSSIF (pH 5.0) or FaSSIF (pH 6.5)), respectively. Shake the solution at 37°C for 24h in a constant temperature bath at 1000rpm, and take samples at 0.5h, 2h and 24h, respectively. Filter the samples through an aquo-system microporous filter membrane and discard the initial filtrate to obtain the test solution.
Perform an HPLC detection for the test solution (20µL), and calculate the sample concentration according to the standard curve method. Table 6. Solubility test results of Crystal Form B in different media

The nature of series [3]: Hygroscopicity test with dynamic moisture absorber (DVS). The settings on record: for Weight gain at 80% RH: 25°C; for hygroscopicity (according to the definition criteria for hygroscopic weight gain): based on weight gain at 80% RH. As for the experimental part:
The hygroscopicity results in the present invention can be measured using a DVS Intrinsic dynamic moisture and gas absorber from Surface Measurement Systems of the UK. Humidity variation: 50%-95%-0%-50%. The humidity change for each gradient within0% ~ 90% is 10%. Airflow: 200ml/min; temperature: 25°C; testing point: one testing point taken every 10% increase in humidity.
Take an appropriate amount of the test sample (the compound shown by Formula (I) in the form of Crystal Form A) to test its hygroscopicity with a dynamic moisture absorber. Table 4. Hygroscopicity test results for Crystal Form A of the present invention
Take an appropriate amount of the test sample (the compound shown by Formula (II) in the form of Crystal Form B) to test its hygroscopicity with a dynamic moisture absorber. Table 7. Hygroscopicity test results for Crystal Form B of the present invention

One may read the solubility as the dissolved amount per volume that the medium holds.

The structures appear in SMILES notation. Values after ≈ are worked out from the molar mass of the structure shown.

With `O=C(N[C@@H](Cc1ccc(N2C(=O)C3(CC3)c3ccc(F)c(F)c32)cc1)C(=O)O)c1c(F)cccc1Cl` [Amorphous, (S)-2-(2-chloro-6-fluorobenzoyl amido)-3-(4-(6',7'-difluoro-2'-oxospiro [cyclopropane-1,3'-indoline]-1'-yl)phenyl) propionic acid], the purity in series [1] (Acceleration 40°C/75%RH, 15d) came out at 89.70%; in series [1] (High humidity 92.5%RH, 15d) it was 93.06%; in series [1] (High temperature 60°C, 15d), 91.89%; in series [1] (Light exposure 4500lux, 15d), 94.91%.

With `O=C(N[C@@H](Cc1ccc(N2C(=O)C3(CC3)c3ccc(F)c(F)c32)cc1)C(=O)O)c1c(F)cccc1Cl` [Crystal Form A, (S)-2-(2-chloro-6-fluorobenzoyl amido)-3-(4-(6',7'-difluoro-2'-oxospiro [cyclopropane-1,3'-indoline]-1'-yl)phenyl) propionic acid], the “change in the purity and form” value in series [1] was “no significant change”. For the same compound, the “Form (crystal form by XRPD)” value in series [1] (Acceleration 40°C/75%RH, 7d) is reported as “Unchanged”; in series [1] (Acceleration 40°C/75%RH, 15d) it was “Unchanged”; in series [1] (High humidity 92.5%RH, 7d) it was “Unchanged”; in series [1] (High humidity 92.5%RH, 15d) it was “Unchanged”; in series [1] (High temperature 60°C, 7d) it was “Unchanged”; in series [1] (High temperature 60°C, 15d) it was “Unchanged”. Further, the “Form (crystal form by XRPD)” value in series [1] (Light exposure 4500lux, 7d) is on record as “Unchanged”; in series [1] (Light exposure 4500lux, 15d), “Unchanged”. The purity in series [1] (Acceleration 40°C/75%RH, 7d) was found to be 99.4%; in series [1] (Acceleration 40°C/75%RH, 15d) it was 99.4%; in series [1] (High humidity 92.5%RH, 7d), 99.3%; in series [1] (High humidity 92.5%RH, 15d), 99.3%; in series [1] (High temperature 60°C, 7d), 99.4%; in series [1] (High temperature 60°C, 15d), 99.4%. The purity in series [1] (Light exposure 4500lux, 7d) is on record as 99.2%; in series [1] (Light exposure 4500lux, 15d) it was 99.2%. Further, the entries for the “solubility (result in words)” value in series [2] and in series [2] (listed as Crystal form A) were “good solubility” and “relatively good”, respectively. Moreover, the “Weight gain at 80% RH” value in series [3] worked out at 0.09%. For the same compound, the “hygroscopicity (according to the definition criteria for hygroscopic weight gain)” value in series [3] is reported as “no or almost no hygroscopicity”.

Take `O=C(N[C@@H](Cc1ccc(N2C(=O)C3(CC3)c3ccc(F)c(F)c32)cc1)C(=O)O)c1c(F)cccc1Cl` [Crystal Form B, (S)-2-(2-chloro-6-fluorobenzoyl amido)-3-(4-(6',7'-difluoro-2'-oxospiro [cyclopropane-1,3'-indoline]-1'-yl)phenyl) propionic acid]: the “change in the purity and form” value in series [1] was “no significant change”. Besides, the purity in series [1] (Acceleration 40°C/75%RH, 0d) is 99.79%; in series [1] (High humidity 92.5%RH, 0d) it was 99.79%; in series [1] (High temperature 60°C, 0d), 99.79%; in series [1] (Light exposure 4500lux, 0d), 99.79%. The “Form (crystal form by XRPD)” value in series [1] (Acceleration 40°C/75%RH, 15d) is on record as “Unchanged”; in series [1] (High humidity 92.5%RH, 15d), “Unchanged”; in series [1] (High temperature 60°C, 15d), “Unchanged”; in series [1] (Light exposure 4500lux, 15d), “Unchanged”. Moreover, the solubility at 0.5 h in series [2] (FaSSIF (pH 6.5)) was found to be 3190 µg/mL (≈ 6.19 mM); in series [2] (FeSSIF (pH 5.0)), 869 µg/mL (≈ 1.69 mM). The solubility at 2 h in series [2] (FaSSIF (pH 6.5)) was determined as 2960 µg/mL (≈ 5.75 mM); in series [2] (FeSSIF (pH 5.0)), 815 µg/mL (≈ 1.58 mM). Further, the figures for the solubility at 24 h in series [2] (FaSSIF (pH 6.5)) and in series [2] (FeSSIF (pH 5.0)) were 2790 µg/mL (≈ 5.42 mM) and 734 µg/mL (≈ 1.43 mM), respectively. The figures for the “solubility (result in words)” value in series [2] and in series [2] (listed as Crystal form B) were “good solubility” and “relatively good”, respectively. Besides, in series [3], the “Weight gain at 80% RH” value was 0.71%. The “hygroscopicity (according to the definition criteria for hygroscopic weight gain)” value in series [3] is recorded as “a slight hygroscopicity”.

Values taken from patent EP4538272B1, “CRYSTAL OF N-(BENZOYL)-PHE[…], AND PHARMACEUTICAL COMPOSITION THEREOF, AND PREPARATION METHOD THEREFOR AND USE THEREOF” (Hangzhou Apeloa Medicine Research Institute Co., Ltd., priority 2022, dated 2023).
